Measurements: patent US20250325717A1, “ANTI-NUCLEOPHOSMIN 1 ANTIBODY AND ANTIBODY CONJUGATE COMBINATION THERAPIES” (The Children's Medical Center Corporation, priority 2022, published 2025)

Assays:
[1] = tested on: OCI-AML3 cells; assay: Low dose chemotherapeutics: induction of cell surface NPM1 on OCI-AML3 cells; type: cell-based, human; conditions: daunorubicin 10 nanomolar (nm), venetoclax 40 nm; for NPM1 on the cell surface: 48 hrs
Description: To determine whether low doses of chemotherapeutic agents, daunorubicin and venetoclax, induce cell surface NPM1, OCI-AML3 cells were exposed to either control or a low dose of a chemotherapeutic treatment. OCI-AML3 cells are resistant to BLC2i. Daunorubicin was administered at 10 nanomolar (nm) and venetoclax was administered at 40 nm. Administration of daunorubicin increased NPM1 on the cell surface at 48 hrs and maintained higher expression for at least 9 days. Administration of venetoclax and separately 5-Aza increased NPM1 at 48 hrs and maintained higher expression for at least 7 days (FIG. 32).

[2] = tested on: NPM1 on the surface of OCI-AML3 cells; assay: Effect of chemotherapeutics on anti-NPM1 antibody binding to OCI-AML3 cell surface; type: cell-based, human
[3] = tested on: normal myeloid progenitor line HOXB8; assay: Low dose chemotherapeutics: cell surface NPM1 on non-transformed HOXB8 cells; type: cell-based; conditions: daunorubicin 10 nM, venetoclax 40 nM, 48 and 72 hours
Description: (§1) The ability of low doses of chemotherapeutic agents, daunorubicin and venetoclax, to induce cell surface NPM1 on non-transformed cells was tested. Normal hematopoietic precursor cell line HPC7 and normal myeloid progenitor line HOXB8 were exposed to either control or a low dose of a chemotherapeutic treatment. Doses of daunorubicin and venetoclax were administered at 10 nanomolar (nM) and 40 nM, respectively. The results of the antibody binding measured by flow cytometry show no change in the low dose chemotherapeutic compared to controls (FIG. 33).

[4] = tested on: Normal hematopoietic precursor cell line HPC7; assay: Low dose chemotherapeutics: cell surface NPM1 on non-transformed HPC7 cells; type: cell-based; conditions: daunorubicin 10 nM, venetoclax 40 nM, 48 and 72 hours
Description: as §1

[5] = target: T1, murine NPM1 (murine, UniProt Q61937 1-292); assay: FACS, primary murine MLL-r AML cells
T1 construct: also called NPM1 on primary murine MLL-rearranged (MLL-r) AML cells; NPM1 on MLL-AF9/Flt3-ITD AML cells
T1 sequence (Q61937 whole entry): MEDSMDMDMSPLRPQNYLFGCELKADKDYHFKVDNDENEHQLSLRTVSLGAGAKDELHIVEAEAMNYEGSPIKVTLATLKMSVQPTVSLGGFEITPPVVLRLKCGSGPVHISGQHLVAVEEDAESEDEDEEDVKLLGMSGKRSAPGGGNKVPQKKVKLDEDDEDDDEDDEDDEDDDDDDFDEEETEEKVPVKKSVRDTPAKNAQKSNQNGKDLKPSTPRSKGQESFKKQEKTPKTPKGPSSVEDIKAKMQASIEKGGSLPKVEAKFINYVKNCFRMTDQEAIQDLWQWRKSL

[6] = target: T2, human nucleophosmin 1 (NPM1) (human, UniProt P06748 1-294); assay: FACS, human AML PDX cells (PDX-1, PDX-3, PDX-4)
T2 construct: In the blots it is NPM1 from lysates or membrane fractions, not on cells; also called WT NPM1; wild-type NPM1
T2 sequence (P06748 whole entry): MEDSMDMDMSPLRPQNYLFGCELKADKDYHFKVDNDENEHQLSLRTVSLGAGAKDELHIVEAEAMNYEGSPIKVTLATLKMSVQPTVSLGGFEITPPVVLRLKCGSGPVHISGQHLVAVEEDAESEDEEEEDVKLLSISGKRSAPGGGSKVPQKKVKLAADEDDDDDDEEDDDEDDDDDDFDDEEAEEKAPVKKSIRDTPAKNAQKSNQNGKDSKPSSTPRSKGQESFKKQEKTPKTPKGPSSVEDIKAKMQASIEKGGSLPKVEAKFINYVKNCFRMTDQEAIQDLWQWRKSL

[7] = tested on: surface localized NPM1 on primary murine NPM1c AML cells; assay: FACS binding to primary murine NPM1c AML cells; type: cell-based
Text: (§2) Given that a variety of murine and human leukemia cell lines express cell surface WT and/or mutant NPM1, it was subsequently assessed whether the isolated antibodies could also bind to the surface of these cells. […] These antibodies could further be used in other applications, including, for example, diagnostic agents by instead conjugating the antibodies with an imaging agent, which can in turn be used to locate and measure the relative abundance of cancer cells in a patient.

[8] = target: T3, surface localized NPM1 on primary murine MLL-rearranged AML cells (Mus musculus, UniProt Q61937); assay: FACS binding to primary murine MLL-rearranged AML cells; type: cell-based
T3 construct: endogenous in cells; host or cells: primary murine MLL-rearranged AML cells
T3 sequence (Q61937 whole entry): as the sequence (Q61937 whole entry) above
Text: as §2

[9] = tested on: NPM1 on human patient derived xenograft (PDX) cells; assay: FACS binding to human PDX cells transplanted into a mouse model; type: cell-based
Text: as §2

[10] = tested on: host murine bone marrow cells; assay: FACS binding to host murine bone marrow cells of PDX mice; type: cell-based; conditions: host bone marrow of PDX mouse model
Text: as §2

Nc1ncn([C@@H]2O[C@H](CO)[C@@H](O)[C@H]2O)c(=O)n1 [5-azacytidine]
NPM1 on the cell surface [1]: increased
binding of anti-NPM1 antibodies to NPM1 on the surface of OCI-AML3 cells ([2]; 40 nM 5-azacytidine): The same effect was observed
binding between the isolated anti-mutant NPM1 and OCI-AML3 cells ([2]; after only 24 hours of treatment with 5-Aza): substantially enhanced

COc1cccc2c1C(=O)c1c(O)c3c(c(O)c1C2=O)C[C@@](O)(C(C)=O)C[C@@H]3O[C@H]1C[C@H](N)[C@H](O)[C@H](C)O1 [daunorubicin]
antibody binding (cell surface NPM1) compared to controls [3]: no change
NPM1 on the cell surface [1]: increased
time for which higher NPM1 expression was maintained [1]: at least 9 days
binding between the isolated anti-WT NPM1 and anti-mutant NPM1 antibody and NPM1 on the surface of OCI-AML3 cells ([2]; 10 nM daunorubicin or 40 nM venetoclax): enhanced binding
binding of anti-NPM1 antibody (Merck/Sigma anti-B23 #B0556) to cells ([2]; 8 days post-treatment, 10 nM daunorubicin or 40 nM venetoclax): substantially enhanced
binding of anti-NPM1 antibody (Merck/Sigma anti-B23 #B0556) to cells ([2]; after 48 hours of treatment, 10 nM daunorubicin or 40 nM venetoclax): enhanced
antibody binding (cell surface NPM1) compared to controls [4]: no change

B1: Ab1 anti-NPM1 antibody (antibody, mouse IgG2a, kappa, V domains shown)
VH: EVQLQQSVAELVRPGASVKLSCTASGFNIKNIFVHWVKQRPEQGLEWIGKIDPANDNTKFAPNFQGKAAISADTSSNTAYLQLSSLTSEDTAIYYCASDSSGYDAVDYWGQGTSVTVSS
VL: DIQMTQSPASLSASVGETVTITCRASESVYTYLAWYQQKQGKSPQLLVYNAKTLTEGVPSRFSGSGSGTQFSLRINSLQPEDFGSYYCQHHYGTPYTFGSGTKLEIKR
notes: also called isolated anti-WT NPM1 antibody
binding result [5]: binds
binding result [6]: binds

B2: Ab1 (antibody)
heavy: EVQLQQSVAELVRPGASVKLSCTASGFNIKNIFVHWVKQRPEQGLEWIGKIDPANDNTKFAPNFQGKAAISADTSSNTAYLQLSSLTSEDTAIYYCASDSSGYDAVDYWGQGTSVTVSSAKTTAPSVYPLAPVCGDTTGSSVTLGCLVKGYFPEPVTLTWNSGSLSSGVHTFPAVLQSDLYTLSSSVTVTSSTWPSQSITCNVAHPASSTKVDKKIEPRGPTIKPCPPCKCPAPNLLGGPSVFIFPPKIKDVLMISLSPIVTCVVVDVSEDDPDVQISWFVNNVEVHTAQTQTHREDYNSTLRVVSALPIQHQDWMSGKEFKCKVNNKDLPAPIERTISKPKGSVRAPQVYVLPPPEEEMTKKQVTLTCMVTDFMPEDIYVEWTNNGKTELNYKNTEPVLDSDGSYFMYSKLRVEKKNWVERNSYSCSVVHEGLHNHHTTKSFSRTPGK
light: DIQMTQSPASLSASVGETVTITCRASESVYTYLAWYQQKQGKSPQLLVYNAKTLTEGVPSRFSGSGSGTQFSLRINSLQPEDFGSYYCQHHYGTPYTFGSGTKLEIKRADAAPTVSIFPPSSEQLTSGGASVVCFLNNFYPKDINVKWKIDGSERQNGVLNSWTDQDSKDSTYSMSSTLTLTKDEYERHNSYTCEATHKTSTSPIVKSFNRNEC
binding to surface localized NPM1 [7]: capable of binding
binding to surface localized NPM1 [8]: capable of binding
binding to NPM1 on PDX cells [9]: bound
binding to host murine bone marrow cells [10]: without binding
